Results from patent US6586596B2, “Acetylcholine enhancers” (priority 1998, dated 2003).

Key:
[1] = test system: scopolamine-induced spatial learning deficit; assay: Water maze, scopolamine-induced deficit in spatial learning; format: in vivo, rats; conditions: p.o. 60 minutes before each trial; Cm.A 1.0 mg/kg/day; scopolamine 0.5 mg/kg i.p.
Experimental: A total of 6 trials (2 trials on 1st day, and 1 trial after 2nd day) were conducted to observe the effects of the test compounds. Scopolamine (0.5 mg/kg, i.p.) and the test compounds (p.o.) were administered 30 and 60 minutes before each trial, respectively.

aged rats (22 month-old) = assay: Water maze, aged rats; format: in vivo, male Fischer 344 rats
Description: As compared with young rats, aged rats (22 month-old) were unable shorten the escape latency period. Even after the 11th trial, only a partial decrease in the latency period was evident in the aged rats.

healthy volunteers = assay: Human Phase IA single-dose, dose-escalation clinical trial; format: in vivo; conditions: single oral dose 2 mg to 180 mg
Experimental: A Phase IA clinical trial was conducted as a single-dose, double-blind, placebo-controlled, dose-escalation study. This study investigated the safety and pharmacokinetic profile of the particularly preferred salt (depicted in FIG. 1B; N-[2-( 1-benzylpiperizin-4-yl)ethyl]-2,3-dihydro-9-methoxy-1H-pyrrolo[3,4-b]quinolin-1-one hemifumarate) of the compound of FIG. 1A, N-[2-(1-benzylpiperzin-4-yl)ethyl]-2,3-dihydro-9-methoxy-1H-pyrrolo[3,4-b] quinolin-1-one. The compound was administered orally in doses from 2 mg to 180 mg to healthy volunteers (male and female), aged 50-75 years, under fasting conditions. A total of 68 individuals were enrolled in the study and completed the trial. A maximum tolerated dose was not identified in this study, i. e., even at 180 mg, there were insufficient adverse events to establish a true “maximum tolerated dose” in this study.

5HT3 receptor = molecular target: T1, 5HT3 receptor (Rattus norvegicus, UniProt P35563); assay: Ex vivo binding of 5HT3 receptors, (3H)-zacopride autoradiography of brain sections; format: in vivo, Sprague-Dawley rats; conditions: 10 mg/kg i.p., 30 minutes, amygdala, 0.5 nM (3H)-zacopride
T1 construct: from tissue; host or cells: rat brain sections (amygdala)
T1 sequence (P35563 24-483): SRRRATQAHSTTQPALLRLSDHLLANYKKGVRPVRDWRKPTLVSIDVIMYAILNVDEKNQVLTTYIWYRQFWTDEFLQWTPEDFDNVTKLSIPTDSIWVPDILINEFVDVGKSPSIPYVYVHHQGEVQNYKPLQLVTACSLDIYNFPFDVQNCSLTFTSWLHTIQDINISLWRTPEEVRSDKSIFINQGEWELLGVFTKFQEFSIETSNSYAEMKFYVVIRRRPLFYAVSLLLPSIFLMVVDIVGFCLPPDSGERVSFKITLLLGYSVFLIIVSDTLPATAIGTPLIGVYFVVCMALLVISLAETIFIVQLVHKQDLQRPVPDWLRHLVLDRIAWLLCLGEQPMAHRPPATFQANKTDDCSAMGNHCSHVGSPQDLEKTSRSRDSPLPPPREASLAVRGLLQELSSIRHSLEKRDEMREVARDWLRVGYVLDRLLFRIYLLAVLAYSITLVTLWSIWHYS
Experimental: Animals (Sprague-Dawley rats) were injected intraperitoneally with 10 mg/kg Cm. A (in 90% ethanol, 10% water, vehicle) (n=3) or vehicle (n=3). After thirty minutes animals were sacrificed and brains were rapidly dissected and frozen in isopentane maintained at −42° C. Sections (horizontal and coronal) were prepared on a cryostat and maintained at −20° C.
Brain sections were removed from storage and thawed at room temperature for 30 minutes. Total 5HT3 receptor binding was measured in sections incubated with 0.5 nM (^3H)-zacopride (Amerhsam; zacorpide is a 5-HT3 selective ligand) in 50 mM HEPES/TRIS buffer. Nonspecific binding was determined in adjacent sections incubated in the presence of radioligand and 500 nM 5-HT. After a 10 minute incubation at room temperature, sections were washed in icecold buffer (2×1 minute) followed by a 10 second rinse in ice-cold distilled water. Sections were then dried in a stream of cold air overnight. After drying, sections were exposed to x-ray film (Kodak Hyperfilm) and exposed for 4 months.
Autoradiograms were quantified using an automated image analysis system, DAGE camera IMAGE software. Mean optical density measurements were obtained from four individual measurements per group, control (vehicle injected) and Cm. A; background measurements were obtained from an area of x-ray on which no tissue was exposed. […]

[2] = molecular target: T2, peripheral 5-HT3 receptor (Rattus norvegicus, UniProt P35563); assay: 5-HT-evoked von Bezold-Jarish Effect (B.J.E.) in anesthetized rats; format: in vivo; conditions: Cm.A 3 to 10 mg/kg
T2 construct: from tissue; host or cells: whole anesthetized rat (peripheral receptors)
T2 sequence (P35563 24-483): T1 sequence (P35563 24-483)
Experimental: A bolus i.v. injection of serotonin (5-HT) (20 μg/kg) caused reflex bradycardia transiently (von Bezold—Jarish Effect: B.J.E.) via activation of peripheral 5-HT3 receptor in anesthetized rats.

Cynomologous monkeys = assay: Hepatotoxic analysis, four-week oral study; format: in vivo; conditions: oral; for Clinical signs vomiting: four weeks (10, 5, 10 mg/kg/day regimens); as to Clinical signs vomiting: key: − no remarkable change; ↑ increase; ↓ decrease; + slight; ++ severe (diarrhea)
Experimental: During the testing period, these animals were dosed with three different regimens: first, animals were dosed with 10 mg/kg/day for 7 days, followed by 32 days-washout period, second, animals were dosed with 5 mg/kg/day for 14 days, and thereafter the animals were dosed with 10 mg/kg/day for 7 days. The following parameters were examined: body weight, clinical signs, food consumption, blood biochemistry (GOT, GPT, ALP, LDH, γ-GTP, ChE, Bil, T.Pro, Alb, A/G ratio, T.Cho, NEFA, TG).

[3] = test system: extracellular levels of ACh in striatum; assay: ACh release in striatum, microdialysis in freely moving rats; format: in vivo; conditions: for ACh content in perfusate increased up to: striatum, young rats (2 month-old Wistar)
Experimental: ACh content in perfusate obtained from striatum (Bregma, A: 0.2 mm, L: 3.0 mm, H: 4.0 mm) of brain were continuously detected by means of HPLC and ECD through the microdialysis system using freely moving rats. See Messamore, E., et al, 32 Neuropharmacol. […] After an equilibration period of more than 2 hours, five fractions were allowed to obtain basal ACh content. Compounds were injected i.p., and thereafter, a microdialytic analysis was conducted for 3 hours.

## COc1c2c(nc3ccccc13)CN(CCC1CCN(Cc3ccccc3)CC1)C2=O [Cm.A, 2-[2-(1-benzylpiperizin-4-yl)ethyl]-2,3-dihydro-9-methoxy-1H-pyrrolo[3,4-b]quinolin-1-one hemifumarate]
[1]
  deficit in spatial learning (escape latency): improved the deficit in spatial learning induced by scopolamine
Aged rats (22 month-old)
  deficit of spatial learning (escape latency): gradually improved the deficit of spatial learning to a level nearly equivalent to young rats
Healthy volunteers
  safety parameters (vital signs, ECG, blood chemistry, hematology, urinalysis, physical examination): no clinically significant changes
  serious adverse events: no serious adverse events reported
Healthy volunteers; fasting, aged 50-75 years
  maximum tolerated dose: > 180 mg
Healthy volunteers; 68 individuals enrolled
  mild adverse events: seven mild adverse events
5HT3 receptor
  occupancy of 5HT3 receptor sites within the brain: occupies 5HT3 receptor sites within the brain
[2]; i.v. pretreatment, E2020 0.1~1 mg/kg, 5-HT 20 μg/kg i.v.
  inhibition of 5-HT-evoked B.J.E. (reflex bradycardia): inhibited B.J.E. dose dependently
[2]; i.v., THA 10 mg/kg, E2020 higher than 1 mg/kg, data not shown
  blood pressure, heart rate and other signs: without any change on blood pressure and heart rate
Cynomologous monkeys; F, four weeks
  Blood biochemistry: ↑: TG
  Clinical signs softstool: ±
  Food consumption: −
Cynomologous monkeys; F
  Clinical signs vomiting: −
Cynomologous monkeys; M, four weeks
  Blood biochemistry: ↑: TG
  Clinical signs softstool: −
  Food consumption: −
Cynomologous monkeys; M
  Clinical signs vomiting: −
Cynomologous monkeys; four weeks
  blood biochemical tests: small increase in TG
  clinical signs: minimal adverse clinical signs
  food consumption and body weight: no remarkable change in food consumption and body weight
[3]; striatum study, young rats, i.p., data not shown
  centrally acting cholinergic symptoms (tremor, chewing and yawning): few centrally acting cholinergic symptoms
[3]; 10 mg/kg i.p.
  ACh content in perfusate increased up to: 131%
[3]; 30 mg/kg i.p.
  ACh content in perfusate increased up to: 369%
